# Experimental data reported in US20250186627A1, “RADIOLABELED COMPOUNDS TARGETING THE PROSTATE-SPECIFIC MEMBRANE ANTIGEN” (PROVINCIAL HEALTH SERVICES AUTHORITY, priority 2022, published 2025).
# System: NRG-mice bearing LNCaP tumors
# Assay: Biodistribution (and PET/SPECT imaging) in NRG-mice bearing LNCaP tumors
# Format: in vivo
# Conditions: Avg
# In short: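 LNCaP xenografts (~10 million cells, left dorsal flank) grown 4-6 weeks to 200-600 mm^3 in NRG mice. Tail-vein injection of 4-6 MBq ^68Ga or 18.5 MBq ^177Lu tracer under isoflurane; CT then 10-min static PET or 1-h SPECT. Biodistribution by gamma counting of weighed organs, expressed as %ID/g.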
smiles,measurement,setting,value
COc1ccc(CCCC(=O)NCC(=O)NC(CCCCNC(=O)CN2CCN(CC(=O)[O-])CCN(CC(=O)[O-])CCN(CC(=O)[O-])CC2)CC(=O)NCC2CCC(C(=O)NC(Cc3c4ccccc4cc4ccccc34)C(=O)NCCCCC(NC(=O)NC(CC(F)C(=O)O)C(=O)O)C(=O)O)CC2)cc1.[177Lu+3] (stereo not drawn) [^177Lu-CCZ02019],Biodistribution: Adrenal gland,3 h p.i.,2.79 % ID/g
same,Biodistribution: Blood,3 h p.i.,11.22 % ID/g
same,Biodistribution: Bone,3 h p.i.,1.03 % ID/g
same,Biodistribution: Brain,3 h p.i.,0.18 % ID/g
same,Biodistribution: Fat,3 h p.i.,1.91 % ID/g
same,Biodistribution: Heart,3 h p.i.,2.52 % ID/g
same,Biodistribution: Intestine,3 h p.i.,0.98 % ID/g
same,Biodistribution: LNCaP tumor,3 h p.i.,50.23 % ID/g
same,Biodistribution: Lacrimal gland,3 h p.i.,0.39 % ID/g
same,Biodistribution: Liver,3 h p.i.,2.18 % ID/g
same,Biodistribution: Lungs,3 h p.i.,5.22 % ID/g
same,Biodistribution: Muscle,3 h p.i.,0.87 % ID/g
same,Biodistribution: Pancreas,3 h p.i.,1.07 % ID/g
same,Biodistribution: Salivary gland,3 h p.i.,1.92 % ID/g
same,Biodistribution: Seminal gland,3 h p.i.,0.59 % ID/g
same,Biodistribution: Spleen,3 h p.i.,1.53 % ID/g
same,Biodistribution: Stomach,3 h p.i.,0.58 % ID/g
same,Biodistribution: Testes,3 h p.i.,2.55 % ID/g
same,Biodistribution: Thyroid,3 h p.i.,2.44 % ID/g
same,Biodistribution: Urine,3 h p.i.,180.95 % ID/g
same,Biodistribution: kidney,3 h p.i.,10.42 % ID/g
same,Biodistribution: Adrenal gland,24 h p.i.,0.54 % ID/g
same,Biodistribution: Blood,24 h p.i.,0.70 % ID/g
same,Biodistribution: Bone,24 h p.i.,0.18 % ID/g
same,Biodistribution: Brain,24 h p.i.,0.03 % ID/g
same,Biodistribution: Fat,24 h p.i.,0.33 % ID/g
same,Biodistribution: Heart,24 h p.i.,0.37 % ID/g
same,Biodistribution: Intestine,24 h p.i.,0.23 % ID/g
same,Biodistribution: LNCaP tumor,24 h p.i.,55.39 % ID/g
same,Biodistribution: Lacrimal gland,24 h p.i.,0.00 % ID/g
same,Biodistribution: Liver,24 h p.i.,0.48 % ID/g
same,Biodistribution: Lungs,24 h p.i.,0.65 % ID/g
same,Biodistribution: Muscle,24 h p.i.,0.11 % ID/g
same,Biodistribution: Pancreas,24 h p.i.,0.17 % ID/g
same,Biodistribution: Salivary gland,24 h p.i.,0.56 % ID/g
same,Biodistribution: Seminal gland,24 h p.i.,0.23 % ID/g
same,Biodistribution: Spleen,24 h p.i.,0.37 % ID/g
same,Biodistribution: Stomach,24 h p.i.,0.73 % ID/g
same,Biodistribution: Testes,24 h p.i.,0.37 % ID/g
same,Biodistribution: Thyroid,24 h p.i.,0.52 % ID/g
same,Biodistribution: Urine,24 h p.i.,8.42 % ID/g
same,Biodistribution: kidney,24 h p.i.,4.02 % ID/g
same,Biodistribution: Adrenal gland,72 h p.i.,0.53 % ID/g
same,Biodistribution: Blood,72 h p.i.,0.13 % ID/g
same,Biodistribution: Bone,72 h p.i.,0.05 % ID/g
same,Biodistribution: Brain,72 h p.i.,0.01 % ID/g
same,Biodistribution: Fat,72 h p.i.,0.16 % ID/g
same,Biodistribution: Heart,72 h p.i.,0.18 % ID/g
same,Biodistribution: Intestine,72 h p.i.,0.08 % ID/g
same,Biodistribution: LNCaP tumor,72 h p.i.,45.10 % ID/g
same,Biodistribution: Lacrimal gland,72 h p.i.,0.00 % ID/g
same,Biodistribution: Liver,72 h p.i.,0.29 % ID/g
same,Biodistribution: Lungs,72 h p.i.,0.41 % ID/g
same,Biodistribution: Muscle,72 h p.i.,0.04 % ID/g
same,Biodistribution: Pancreas,72 h p.i.,0.09 % ID/g
same,Biodistribution: Salivary gland,72 h p.i.,0.27 % ID/g
same,Biodistribution: Seminal gland,72 h p.i.,0.06 % ID/g
same,Biodistribution: Spleen,72 h p.i.,0.45 % ID/g
same,Biodistribution: Stomach,72 h p.i.,0.15 % ID/g
same,Biodistribution: Testes,72 h p.i.,0.39 % ID/g
same,Biodistribution: Thyroid,72 h p.i.,0.37 % ID/g
same,Biodistribution: Urine,72 h p.i.,1.12 % ID/g
same,Biodistribution: kidney,72 h p.i.,1.84 % ID/g
same,Biodistribution: Adrenal gland,144 h p.i.,0.31 % ID/g
same,Biodistribution: Blood,144 h p.i.,0.04 % ID/g
same,Biodistribution: Bone,144 h p.i.,0.04 % ID/g
same,Biodistribution: Brain,144 h p.i.,0.01 % ID/g
same,Biodistribution: Fat,144 h p.i.,0.11 % ID/g
same,Biodistribution: Heart,144 h p.i.,0.13 % ID/g
same,Biodistribution: Intestine,144 h p.i.,0.03 % ID/g
same,Biodistribution: LNCaP tumor,144 h p.i.,40.77 % ID/g
same,Biodistribution: Lacrimal gland,144 h p.i.,0.00 % ID/g
same,Biodistribution: Liver,144 h p.i.,0.19 % ID/g
same,Biodistribution: Lungs,144 h p.i.,0.93 % ID/g
same,Biodistribution: Muscle,144 h p.i.,0.03 % ID/g
same,Biodistribution: Pancreas,144 h p.i.,0.06 % ID/g
same,Biodistribution: Salivary gland,144 h p.i.,0.34 % ID/g
same,Biodistribution: Seminal gland,144 h p.i.,0.03 % ID/g
same,Biodistribution: Spleen,144 h p.i.,0.51 % ID/g
same,Biodistribution: Stomach,144 h p.i.,0.03 % ID/g
same,Biodistribution: Testes,144 h p.i.,0.33 % ID/g
same,Biodistribution: Thyroid,144 h p.i.,0.28 % ID/g
same,Biodistribution: Urine,144 h p.i.,0.84 % ID/g
same,Biodistribution: kidney,144 h p.i.,1.10 % ID/g
same,Biodistribution: Adrenal gland,240 h p.i.,0.11 % ID/g
same,Biodistribution: Blood,240 h p.i.,0.01 % ID/g
same,Biodistribution: Bone,240 h p.i.,0.00 % ID/g
same,Biodistribution: Brain,240 h p.i.,0.00 % ID/g
same,Biodistribution: Fat,240 h p.i.,0.06 % ID/g
same,Biodistribution: Heart,240 h p.i.,0.05 % ID/g
same,Biodistribution: Intestine,240 h p.i.,0.02 % ID/g
same,Biodistribution: LNCaP tumor,240 h p.i.,25.30 % ID/g
same,Biodistribution: Lacrimal gland,240 h p.i.,0.00 % ID/g
same,Biodistribution: Liver,240 h p.i.,0.15 % ID/g
same,Biodistribution: Lungs,240 h p.i.,0.09 % ID/g
same,Biodistribution: Muscle,240 h p.i.,0.01 % ID/g
same,Biodistribution: Pancreas,240 h p.i.,0.03 % ID/g
same,Biodistribution: Salivary gland,240 h p.i.,0.10 % ID/g
same,Biodistribution: Seminal gland,240 h p.i.,0.01 % ID/g
same,Biodistribution: Spleen,240 h p.i.,0.46 % ID/g
same,Biodistribution: Stomach,240 h p.i.,0.02 % ID/g
same,Biodistribution: Testes,240 h p.i.,0.16 % ID/g
same,Biodistribution: Thyroid,240 h p.i.,0.12 % ID/g
same,Biodistribution: Urine,240 h p.i.,0.37 % ID/g
same,Biodistribution: kidney,240 h p.i.,0.52 % ID/g
